ChEMBL document CHEMBL3797178, “Synthesis, antimycobacterial and antibacterial activity of 1-(6-amino-3,5-difluoropyridin-2-yl)fluoroquinolone derivatives containing an oxime functional moiety” (2016)

Tests used:
Assay type in all cases: functional
[1] = tested on: Mycobacterium tuberculosis; test: Antimycobacterial activity against Mycobacterium tuberculosis H37Rv ATCC 27294 after 3 days by microplate Alamar Blue assay; details: H37Rv ATCC 27294, 72 h
Escherichia coli [2] = test: Antibacterial activity against Escherichia coli ATCC 25922 after 18 to 24 hrs by CLSI M100-S11 method
Escherichia coli [3] = test: Antibacterial activity against extended-spectrum beta-lactamase-producing Escherichia coli 14-1 after 18 to 24 hrs by CLSI M100-S11 method
Escherichia coli [4] = test: Antibacterial activity against extended-spectrum beta-lactamase-producing Escherichia coli 14-2 after 18 to 24 hrs by CLSI M100-S11 method
Escherichia coli [5] = test: Antibacterial activity against Escherichia coli 14-1 after 18 to 24 hrs by CLSI M100-S11 method
Escherichia coli [6] = test: Antibacterial activity against Escherichia coli 14-2 after 18 to 24 hrs by CLSI M100-S11 method
Klebsiella pneumoniae [7] = test: Antibacterial activity against extended-spectrum beta-lactamase-producing Klebsiella pneumoniae 14-17 after 18 to 24 hrs by CLSI M100-S11 method
Klebsiella pneumoniae [8] = test: Antibacterial activity against extended-spectrum beta-lactamase-producing Klebsiella pneumoniae 14-18 after 18 to 24 hrs by CLSI M100-S11 method
Klebsiella pneumoniae [9] = test: Antibacterial activity against extended-spectrum beta-lactamase-producing Klebsiella pneumoniae 14-19 after 18 to 24 hrs by CLSI M100-S11 method
Klebsiella pneumoniae [10] = test: Antibacterial activity against Klebsiella pneumoniae 14-1 after 18 to 24 hrs by CLSI M100-S11 method
Klebsiella pneumoniae [11] = test: Antibacterial activity against Klebsiella pneumoniae 14-2 after 18 to 24 hrs by CLSI M100-S11 method
Klebsiella pneumoniae [12] = test: Antibacterial activity against Klebsiella pneumoniae 14-3 after 18 to 24 hrs by CLSI M100-S11 method
Klebsiella pneumoniae [13] = test: Antibacterial activity against Klebsiella pneumoniae 14-4 after 18 to 24 hrs by CLSI M100-S11 method
Pseudomonas aeruginosa [14] = test: Antibacterial activity against Pseudomonas aeruginosa ATCC 27853 after 18 to 24 hrs by CLSI M100-S11 method
Pseudomonas aeruginosa [15] = test: Antibacterial activity against Pseudomonas aeruginosa 14-9 after 18 to 24 hrs by CLSI M100-S11 method
Pseudomonas aeruginosa [16] = test: Antibacterial activity against Pseudomonas aeruginosa 14-14 after 18 to 24 hrs by CLSI M100-S11 method
Pseudomonas aeruginosa [17] = test: Antibacterial activity against Pseudomonas aeruginosa 14-15 after 18 to 24 hrs by CLSI M100-S11 method
Pseudomonas aeruginosa [18] = test: Antibacterial activity against Pseudomonas aeruginosa 14-16 after 18 to 24 hrs by CLSI M100-S11 method
Pseudomonas aeruginosa [19] = test: Antibacterial activity against Pseudomonas aeruginosa 14-19 after 18 to 24 hrs by CLSI M100-S11 method
Staphylococcus aureus [20] = test: Antibacterial activity against Staphylococcus aureus CMCC 26003 after 18 to 24 hrs by CLSI M100-S11 method
Staphylococcus aureus [21] = test: Antibacterial activity against methicillin-sensitive Staphylococcus aureus 14-2 after 18 to 24 hrs by CLSI M100-S11 method
Staphylococcus aureus [22] = test: Antibacterial activity against methicillin-sensitive Staphylococcus aureus 14-3 after 18 to 24 hrs by CLSI M100-S11 method
Staphylococcus aureus [23] = test: Antibacterial activity against methicillin-sensitive Staphylococcus aureus 14-4 after 18 to 24 hrs by CLSI M100-S11 method
Staphylococcus aureus [24] = test: Antibacterial activity against methicillin-resistant Staphylococcus aureus 14-4 after 18 to 24 hrs by CLSI M100-S11 method
Staphylococcus aureus [25] = test: Antibacterial activity against methicillin-resistant Staphylococcus aureus 14-5 after 18 to 24 hrs by CLSI M100-S11 method
[26] = tested on: Staphylococcus epidermidis; test: Antibacterial activity against methicillin-sensitive Staphylococcus epidermidis 14-2 after 18 to 24 hrs by CLSI M100-S11 method
[27] = tested on: Staphylococcus epidermidis; test: Antibacterial activity against methicillin-sensitive Staphylococcus epidermidis 14-4 after 18 to 24 hrs by CLSI M100-S11 method
[28] = tested on: Staphylococcus epidermidis; test: Antibacterial activity against methicillin-sensitive Staphylococcus epidermidis 14-6 after 18 to 24 hrs by CLSI M100-S11 method
[29] = tested on: Staphylococcus epidermidis; test: Antibacterial activity against methicillin-resistant Staphylococcus epidermidis 14-22 after 18 to 24 hrs by CLSI M100-S11 method
[30] = tested on: Staphylococcus epidermidis; test: Antibacterial activity against methicillin-resistant Staphylococcus epidermidis 14-37 after 18 to 24 hrs by CLSI M100-S11 method
Streptococcus pneumoniae = test: Antibacterial activity against Streptococcus pneumoniae ATCC 19615 after 18 to 24 hrs by CLSI M100-S11 method
Enterococcus faecium [31] = test: Antibacterial activity against Enterococcus faecium 14-1 after 18 to 24 hrs by CLSI M100-S11 method
Enterococcus faecium [32] = test: Antibacterial activity against Enterococcus faecium 14-2 after 18 to 24 hrs by CLSI M100-S11 method
Enterococcus faecalis [33] = test: Antibacterial activity against Enterococcus faecalis 14-1 after 18 to 24 hrs by CLSI M100-S11 method
Enterococcus faecalis [34] = test: Antibacterial activity against Enterococcus faecalis 14-2 after 18 to 24 hrs by CLSI M100-S11 method
Enterococcus faecalis [35] = test: Antibacterial activity against Enterococcus faecalis 14-3 after 18 to 24 hrs by CLSI M100-S11 method
[36] = tested on: Staphylococcus epidermidis; test: Antibacterial activity against methicillin-resistant Staphylococcus epidermidis 14-39 after 18 to 24 hrs by CLSI M100-S11 method

Measured: MIC

CO/N=C1\CCN(c2nc3c(cc2F)c(=O)c(C(=O)O)cn3-c2nc(N)c(F)cc2F)CC1O (centres undefined)
2 µg/mL: Staphylococcus aureus [20] | Staphylococcus aureus [21]
64 µg/mL: Escherichia coli [2] | Escherichia coli [3] | Streptococcus pneumoniae | Enterococcus faecium [32]
30.7 µg/mL: [1]
128 µg/mL: Pseudomonas aeruginosa [14] | Pseudomonas aeruginosa [15] | Pseudomonas aeruginosa [16] | Pseudomonas aeruginosa [17] | Pseudomonas aeruginosa [18] | Pseudomonas aeruginosa [19] | Staphylococcus aureus [25]
4 µg/mL: Staphylococcus aureus [22] | Staphylococcus aureus [23]
not listed: [36]
> 128 µg/mL: all other assays above

Nc1nc(-n2cc(C(=O)O)c(=O)c3cc(F)c(N4CC/C(=N\OCc5ccccc5)C(N)C4)nc32)c(F)cc1F (centres undefined)
8 µg/mL: Staphylococcus aureus [20] | Staphylococcus aureus [21] | Staphylococcus aureus [23]
4 µg/mL: Staphylococcus aureus [22]
64 µg/mL: Escherichia coli [2] | Streptococcus pneumoniae | Enterococcus faecium [32]
> 32 µg/mL: [1]
128 µg/mL: Escherichia coli [3] | Pseudomonas aeruginosa [14] | Pseudomonas aeruginosa [15] | Pseudomonas aeruginosa [16] | Pseudomonas aeruginosa [17] | Pseudomonas aeruginosa [18] | Pseudomonas aeruginosa [19] | Enterococcus faecalis [33] | Enterococcus faecalis [34]
not listed: [36]
> 128 µg/mL: all other assays above

CO/N=C1\CN(c2nc3c(cc2F)c(=O)c(C(=O)O)cn3-c2nc(N)c(F)cc2F)CC1CN (centres undefined)
128 µg/mL: Escherichia coli [5] | Escherichia coli [6] | Klebsiella pneumoniae [7] | [30]
7.13 µg/mL: [1]
32 µg/mL: Klebsiella pneumoniae [8] | Pseudomonas aeruginosa [16] | Pseudomonas aeruginosa [17] | Pseudomonas aeruginosa [18] | Enterococcus faecalis [35]
64 µg/mL: Pseudomonas aeruginosa [19] | Staphylococcus aureus [25] | [27] | [28] | [29] | [36] | Streptococcus pneumoniae | Enterococcus faecium [32]
0.5 µg/mL: Staphylococcus aureus [20] | Staphylococcus aureus [21] | Staphylococcus aureus [22]
4 µg/mL: Pseudomonas aeruginosa [14]
2 µg/mL: Escherichia coli [2]
0.25 µg/mL: Staphylococcus aureus [23]
16 µg/mL: Escherichia coli [3] | Pseudomonas aeruginosa [15] | Enterococcus faecalis [33] | Enterococcus faecalis [34]
> 128 µg/mL: all other assays above

Nc1nc(-n2cc(C(=O)O)c(=O)c3cc(F)c(N4CC/C(=N\OCc5ccccc5)C(O)C4)nc32)c(F)cc1F (centres undefined)
128 µg/mL: Escherichia coli [3] | Pseudomonas aeruginosa [14] | Pseudomonas aeruginosa [15] | Pseudomonas aeruginosa [16] | Pseudomonas aeruginosa [17] | Pseudomonas aeruginosa [18] | Pseudomonas aeruginosa [19]
16 µg/mL: Escherichia coli [2]
2 µg/mL: Staphylococcus aureus [20]
> 32 µg/mL: [1]
32 µg/mL: Streptococcus pneumoniae | Enterococcus faecium [32]
4 µg/mL: Staphylococcus aureus [21] | Staphylococcus aureus [22] | Staphylococcus aureus [23]
64 µg/mL: Klebsiella pneumoniae [12]
not listed: [36]
> 128 µg/mL: all other assays above

NC[C@H]1/C(=N/OCc2ccccc2)CN1c1nc2c(cc1F)c(=O)c(C(=O)O)cn2-c1nc(N)c(F)cc1F
> 32 µg/mL: [1]
> 130 µg/mL: [36]
32 µg/mL: Enterococcus faecium [32]
128 µg/mL: Klebsiella pneumoniae [8] | Pseudomonas aeruginosa [15] | Pseudomonas aeruginosa [16] | Pseudomonas aeruginosa [17] | Pseudomonas aeruginosa [18]
64 µg/mL: Escherichia coli [3] | Pseudomonas aeruginosa [14] | Streptococcus pneumoniae
4 µg/mL: Escherichia coli [2] | Staphylococcus aureus [22] | Staphylococcus aureus [23]
2 µg/mL: Staphylococcus aureus [20] | Staphylococcus aureus [21]
not listed: Pseudomonas aeruginosa [19]
> 128 µg/mL: all other assays above

CO/N=C1\CCN(c2nc3c(cc2F)c(=O)c(C(=O)O)cn3-c2nc(N)c(F)cc2F)CC1N (centres undefined)
> 32 µg/mL: [1]
16 µg/mL: Escherichia coli [2] | Staphylococcus aureus [23]
8 µg/mL: Staphylococcus aureus [20] | Staphylococcus aureus [21] | Staphylococcus aureus [22]
64 µg/mL: Streptococcus pneumoniae | Enterococcus faecium [32]
128 µg/mL: Pseudomonas aeruginosa [14] | Pseudomonas aeruginosa [15] | Pseudomonas aeruginosa [16] | Pseudomonas aeruginosa [17] | Pseudomonas aeruginosa [18] | Pseudomonas aeruginosa [19]
not listed: [36]
> 128 µg/mL: all other assays above

O=C(O)c1cn(C2CC2)c2cc(N3CCNCC3)c(F)cc2c1=O [CIPROFLOXACIN]
0.25 µg/mL: [1]

NNC(=O)c1ccncc1 [ISONIAZID]
0.05 µg/mL: [1]

C[C@H]1COc2c(N3CCN(C)CC3)c(F)cc3c(=O)c(C(=O)O)cn1c23.C[C@H]1COc2c(N3CCN(C)CC3)c(F)cc3c(=O)c(C(=O)O)cn1c23.O [LEVOFLOXACIN]
64 µg/mL: Klebsiella pneumoniae [9] | Staphylococcus aureus [24] | [30] | [36] | Enterococcus faecalis [35]
0.25 µg/mL: [1] | Staphylococcus aureus [21]
2 µg/mL: Escherichia coli [3] | [28]
4 µg/mL: Escherichia coli [5] | Escherichia coli [6] | Klebsiella pneumoniae [7]
1 µg/mL: [27] | Enterococcus faecium [32]
8 µg/mL: Escherichia coli [4] | Klebsiella pneumoniae [11] | Klebsiella pneumoniae [13] | Staphylococcus aureus [25]
0.125 µg/mL: Escherichia coli [2] | Staphylococcus aureus [20] | Staphylococcus aureus [22]
32 µg/mL: [29] | Enterococcus faecalis [34]
16 µg/mL: Klebsiella pneumoniae [10] | Klebsiella pneumoniae [12] | Enterococcus faecalis [33]
0.5 µg/mL: Staphylococcus aureus [23]
128 µg/mL: [26] | Enterococcus faecium [31]

CO[C@H]1/C=C/O[C@@]2(C)Oc3c(C)c(O)c4c(O)c(c(/C=N/N5CCN(C)CC5)c(O)c4c3C2=O)NC(=O)/C(C)=C\C=C\[C@H](C)[C@H](O)[C@@H](C)[C@@H](O)[C@@H](C)[C@H](OC(C)=O)[C@@H]1C [RIFAMPIN]
0.05 µg/mL: [1]
